Data from patent US10672502B2, “Methods for determining protein structure using a surface-selective nonlinear optical technique” (Biodesy, Inc., priority 2015, dated 2020).
Where two headings read alike, the source gives them in different places.

System: dihydrofolate reductase (DHFR)
Details: 1 uM TMP
Procedure: Immediately before applying DOPC/DGS NTA (Ni) lipids, clean microscope slides with Piranha wash for 20 minutes. Rinse 3× with diH2O in a slide staining vessel. Dry slides with compressed Nitrogen. Assemble SHG wells by attaching adhesive gaskets to Piranha-cleaned slides (i.e., 16 wells per slide containing 10-20 μl volume). Use an assembly jig to align gaskets, carefully lay slide into jig and press firmly. Dilute DOPC/DGS NTA (Ni) lipid prep 1:1 with PBS or TBS buffers. 100 mM NaCl is required to reduce hydrostatic charge of the glass slide and enable the supported lipid bilayer (SLB) to form. Pipet 10-20 μL of diluted DOPC/DGS NTA (Ni) lipid into the wells of the slide and incubate for 5 minutes at room temperature. Wash the wells by submersing the slide in buffer bath (PBS or TBS) and agitating with a 200 μL pipettor taking care not to introduce air into the wells at any time. Exchange the entire volume of buffer in the bath with fresh buffer and repeat the washing step 2 more times. Add a 1:1 volume of 100 mM NiCl2 solution to all wells and incubate for 10 minutes at room temperature. Wash the wells by submersing the slide in buffer bath (PBS or TBS) and agitating with a 200 μL pipettor. Exchange the entire volume of buffer in bath with fresh buffer and repeat the washing step 2 more times. […]

## COc1cc(Cc2cnc(N)nc2N)cc(OC)c1OC [TMP, trimethoprim]
cysteine-labeled DHFR mutant tethered to Ni/NTA supported lipid bilayer via His tag at the C-terminus
  decrease in baseline signal (SHG % change, Izzz): approximately 90%
cysteine-labeled DHFR mutant tethered to Ni/NTA supported lipid bilayer via His tag at the N-terminus, FIG. 14A
  decrease in baseline signal (SHG % change, Izzz): roughly 70%
